Data as given in patent publication US12318361B2, “Methods for treating cardiovascular diseases” (Olatec Therapeutics LLC, priority 2017, dated 2025).

Tested on: male CD-1 mice, experimental AMI
Experiment: Experimental mouse AMI model (30 min ischemia, 24 h reperfusion), dose response and delayed dosing, Example 9
Type: in vivo
Conditions: for Infarct size, Change (%) relative to saline group / Infarct size, mean: 24 h; for AWDT, mean / AWST, mean / LVEDD, mean / LVEF, mean / LVESD, mean / LVFS, mean / PWDT, mean / PWST, mean: echo at 24 h
Method: Objectives: To determine the efficacy of, (1) a single dose of OLT1177™ (6, 60 and 600 mg/kg) administered at the time of reperfusion (Part A) and, (2) a single dose of 60 mg/kg OLT1177™ administered 60, 120 or 180 minutes after reperfusion in an experimental mouse AMI model.
Methodology: Male CD-1 mice underwent transient surgical ligation of the left coronary artery for 30 minutes followed by reperfusion for 24 hours. A single dose of OLT1177™ (6, 60, or 600 mg/kg) or matching vehicle was administered intraperitoneally (IP) at time of reperfusion (N=5-9/group, Study Part A) or OLT1177™ (60 mg/kg) after a 60-, 120- or 180-minute delay (N=4-7/group, Study Part B). Echocardiography was performed to measure left ventricular (LV) fractional shortening (FS). Infarct size was measured at pathology by triphenyl-tetrazolium-chloride (TTC) and phthalo blue staining and expressed as a percentage of the myocardium at risk.
For the 60-mg/kg dose, OLT1177™ (13 mg/vial) was diluted in 0.65 ml of 0.9% of normal saline solution to reach a concentration of 20 mg/ml. For the 6 mg/kg dose, the 20 mg/ml dose was diluted 10 times (0.1 ml OLT1177™ […]+0.9 ml 0.9% normal saline) to reach a final concentration of 2 mg/ml. For the 600 mg/kg dose, each vial of OLT1177™ (13 mg/vial) was diluted with 0.1 ml of saline, to reach a final concentration of 130 mg/ml. The content of multiple vials was combined. Each respective tube was subjected to a vortex and heating at 37° C. until complete dissolution of the drug substance.
Male mice were dosed with OLT1177™ by the intraperitoneal route at dose levels of 6, 60, or 600 mg/kg (each approximately 33 g mouse received 100 μl of the dosing solution; 150 μl for the higher dose) after the reperfusion was confirmed (Study Part A). In Part B, 60 mg/kg OLT1177™ was injected (100 μl of the dosing solution per mouse) with a delay of 60, 120 or 180 minutes from the time of reperfusion.
Adult out-bred male CD1 mice (8-10 weeks of age) were supplied by Envigo (Indianapolis, IN). A single operator performed all surgeries. Experimental AMI was induced by transient coronary artery ligation for 30 minutes to induce ischemia of the anterior wall and the apex (visible as pallor) followed by reperfusion, and leading to an infarct involving approximately 15% of the left ventricle. Mice were deeply sedated with sodium pentobarbital (70 mg/kg), intubated using a 23 G catheter and placed in the right lateral decubitus. The mice were shaved and the skin was cleaned with povidone solution and isopropyl alcohol. The mice were then connected to a ventilator and a left thoracotomy was performed followed by pericardiectomy and ligation of the proximal left coronary artery. A 1-mm diameter polyethylene tube was inserted inside the ligature knot, secured and left in place to obstruct the coronary flow for 30 minutes. At the end of the ischemic time, the tube was removed and the coronary flow re-establishment was observed. At this time, OLT1177™ at a dose of 6, 60 or 600 mg/kg, or the normal saline (0.9% NaCl) used as vehicle (0.1 ml of total volume) was injected into the peritoneal cavity after the reperfusion was confirmed (Part A). After closure of the thoracic access, the mice were left to recover for 24 hours. Pain management was achieved using buprenorphine (Buprenorphine SR™ Lab, 0.5 mg/kg) injected subcutaneously. For Study Part B, groups of mice were injected with 60 mg/kg of OLT1177™ after 60, 120 or 180 minutes from the moment of reperfusion.
Before sacrifice (24 hours after reperfusion), the mice underwent transthoracic echocardiography under mild anesthesia with sodium pentobarbital (50 mg/kg). Echocardiography was performed with the Vevo770 Imaging System (VisualSonics Inc, Toronto, Ontario, Canada) and a 30 MHz probe. The heart was visualized in B-mode from the parasternal short axis and apical views. The left ventricular (LV) end-diastolic diameter (LVEDD) and LV end-systolic diameters (LVESD) at M-Mode were measured. […]

[1] = 6 mg/kg IP at time of reperfusion (Group 2)
[2] = 60 mg/kg IP administered at 60 minutes (Group 5)
[3] = 60 mg/kg IP administered at 120 minutes (Group 6)
[4] = 60 mg/kg IP at time of reperfusion (Group 3)
[5] = 60 mg/kg IP, Group 7 (N = 4), head prints Administered at 120 Minutes
[6] = 60 mg/kg IP, treatment delay of 60 or 120 minutes, p<0.01
[7] = 600 mg/kg IP at time of reperfusion (Group 4)
[8] = all doses (6, 60, 600 mg/kg) at reperfusion, 24 h after reperfusion, p<0.05

CS(=O)(=O)CCC#N [OLT1177™, 3-methanesulfonyl-propionitrile]
Infarct size, Change (%) relative to saline group [1]: −36%
AWDT, mean [1]: 0.79 mm
AWST, mean [1]: 1.10 mm
LVEDD, mean [1]: 3.71 mm
LVEF, mean [1]: 61.4%
LVESD, mean [1]: 2.52 mm
LVFS, mean [1]: 32.2%
PWDT, mean [1]: 0.86 mm
PWST, mean [1]: 1.12 mm
Infarct size, mean (6 mg/kg IP single dose at time of reperfusion (Group 2)): 9.9%
infarct size (in words) (60 mg/kg IP administered 120 or 180 minutes after reperfusion): not significantly altered
AWDT, mean [2]: 0.85 mm
AWST, mean [2]: 1.18 mm
LVEDD, mean [2]: 4.00 mm
LVEF, mean [2]: 65.3%
LVESD, mean [2]: 2.59 mm
LVFS, mean [2]: 35.5%
PWDT, mean [2]: 0.89 mm
PWST, mean [2]: 1.33 mm
Infarct size, mean (60 mg/kg IP administered at 60 minutes after reperfusion (Group 5)): 4.4%
AWDT, mean [3]: 0.83 mm
AWST, mean [3]: 1.20 mm
LVEDD, mean [3]: 4.07 mm
LVEF, mean [3]: 63.6%
LVESD, mean [3]: 2.68 mm
LVFS, mean [3]: 34.1%
PWDT, mean [3]: 0.87 mm
PWST, mean [3]: 1.26 mm
Infarct size, mean (60 mg/kg IP administered at 120 minutes after reperfusion (Group 6)): 11.1%
Infarct size, mean (60 mg/kg IP administered at 180 minutes after reperfusion (Group 7)): 15.4%
reducing infarct size and preserving LV function, compared with treatment given with no delay (60 mg/kg IP after a 60 minutes delay after reperfusion): equally effective
Infarct size, Change (%) relative to saline group [4]: −67%
AWDT, mean [4]: 0.82 mm
AWST, mean [4]: 1.25 mm
LVEDD, mean [4]: 4.25 mm
LVEF, mean [4]: 59.3%
LVESD, mean [4]: 2.93 mm
LVFS, mean [4]: 31.0%
PWDT, mean [4]: 0.86 mm
PWST, mean [4]: 1.24 mm
Infarct size, mean (60 mg/kg IP single dose at time of reperfusion (Group 3)): 5.1%
AWDT, mean [5]: 0.95 mm
AWST, mean [5]: 1.22 mm
LVEDD, mean [5]: 3.88 mm
LVEF, mean [5]: 51.5%
LVESD, mean [5]: 2.87 mm
LVFS, mean [5]: 26.0%
PWDT, mean [5]: 0.94 mm
PWST, mean [5]: 1.31 mm
LV ejection fraction in comparison to vehicle-treated mice (in words) [6]: significantly improved
LV fractional shortening in comparison to vehicle-treated mice (in words) [6]: significantly improved
drop in fractional shortening (in words) (60 mg/kg IP, treatment delay of 180 minutes): failed to prevent the drop
Infarct size, Change (%) relative to saline group [7]: −61%
AWDT, mean [7]: 0.77 mm
AWST, mean [7]: 1.06 mm
LVEDD, mean [7]: 3.76 mm
LVEF, mean [7]: 61.6%
LVESD, mean [7]: 2.54 mm
LVFS, mean [7]: 33.0%
PWDT, mean [7]: 0.83 mm
PWST, mean [7]: 1.14 mm
Infarct size, mean (600 mg/kg IP single dose at time of reperfusion (Group 4)): 6.0%
infarct size vs vehicle (in words) (6, 60 and 600 mg/kg single IP injection at time of reperfusion, p<0.001): significant reduction
LV ejection fraction relative to vehicle control (in words) [8]: significantly higher
LV fractional shortening relative to vehicle control (in words) [8]: significantly higher
decrease in mean infarct size compared to the vehicle control (high dose 600 mg/kg IP at time of reperfusion): more than 60%
decrease in infarct size compared to the vehicle control (low dose 6 mg/kg IP at time of reperfusion): 36%
decrease in mean infarct size compared to the vehicle control (mid dose 60 mg/kg IP at time of reperfusion): more than 60%
